Reference: patent US7396672B2, “Method for the production of dinoflagellate cultures” (priority 2003, dated 2008)

Key:
Assay type in all cases: cell-based
[1] = test system: Heterocapsa triquetra (CCMP449); assay: cell proliferation assay, monoculture of phytoplankton; details: 1 mM mimosine
Procedure: (§1) The effects of mimosine at low mM concentrations on pure cultures of four different groups of phytoplankton were tested. The phytoplankton tested were the Cryptophyceae Rhodomonas salina (CCMP1319), the Prymnesiophyceae Isochrysis galbana (CCMP1323), the Bacillariophyceae Cylindricus fusiformis (PCC100) and the dinoflagellate Heterocapsa triquetra (CCMP449). Cultures of phytoplankters were obtained from Bigelow Laboratory for Ocean Sciences (CCMP) or the Plymouth Culture Collection (PCC). The cultures were maintained in f/2 medium at 18° C., under photon flux of […] from fluorescent tubes (Phillips daylight) under a 14:10 hours light/dark cycle. For cell proliferation assays, exponentially growing cells were diluted ten times with fresh medium before the addition of mimosine to give cultures having a final mimosine concentration of 0.01, 0.1 and 1 mM. All chemicals were from Sigma Corporation unless otherwise stated. All growth studies were performed in triplicate. Cell counting was performed by Coulter counter and all samples were counted at least three times.

[2] = test system: Cylindricus fusiformis (PCC100); assay: as above; details: 8 days
Procedure: as §1

[3] = test system: Rhodomonas salina (CCMP1319); assay: as above; details: 8 days
Procedure: as §1

[4] = test system: Isochrysis galbana (CCMP1323); assay: as above; details: 8 days
Procedure: as §1

[5] = test system: diatoms; assay: mixed phytoplankton in natural seawater samples; details: 2 mM mimosine, 6 days, diatoms dominant group in the control
Procedure: (§2) Whether mimosine can confer an advantage in the phytoplankton community by adding mimosine directly to natural seawater samples was therefore tested. Natural seawater samples were collected from Port Shelter (eastern Hong Kong) and filtered through a 100 μm mesh to remove all zooplankton immediately before use. Mimosine was then added at 2 mM and samples were taken for estimation of the percentage of dinoflagellates and diatoms. The samples were then incubated under the same conditions as in Example 1. Within 6 days, dinoflagellates became the dominant group. The dinoflagellate population increased from 30% to 60% of the total population (FIG. 2). The diatoms, which were the dominant group in the control, decreased to 10% of the total population in 6 days (at the time of measurement) upon treatment with mimosine.

[6] = test system: dinoflagellates; assay: mixed phytoplankton in natural seawater samples; details: 2 mM mimosine
Procedure: as §2

[7] = 0.01 and 0.1 mM mimosine, f/2 medium

## NC(Cn1ccc(=O)c(O)c1)C(=O)O (stereo not drawn) [mimosine, α-amino-3-hydroxy-4-oxo-1-pyridine propanoic acid]
[1]
  cell number compared to control treatment: increased the cell number significantly
[2]; 1 mM mimosine
  mean cell numbers significantly lower than those in the controls: 25%
[2]; [7]
  cell number compared to control treatment: slightly lower numbers of cells, though not significantly so
[3]; 1 mM mimosine
  mean cell numbers significantly lower than those in the controls: 75%
[3]; [7]
  cell number compared to control treatment: slightly lower numbers of cells, though not significantly so
[4]; 1 mM mimosine
  cell number increase: no cell number increase
[4]; [7]
  cell number compared to control treatment: slightly lower numbers of cells, though not significantly so
[5]
  diatoms as percentage of the total population: 10%
[6]; natural seawater
  time until dinoflagellates became the dominant group: ≤ 6 days
[6]; natural seawater (Port Shelter), 6 days, increased from 30%
  dinoflagellate population as percentage of the total population: 60%
